Assay [1] has as its target T1, Human GPR40 (Homo sapiens, UniProt O14842). Nature of the assay: Inositol Phosphate Turnover Assay 1 (HEK cells stably expressing human GPR40). It counts as cell-based. On the set-up: expressed in transfected cells; host or cells: HEK cells stably expressing the aequorin reporter. The following applies: HEK cells stably expressing human GPR40, 96-well, 3H-inositol; read-out: Human GPR40 IP1 Assay 1, EC50. As to the method:
(§1) Human and mouse GPR40 stable cell-lines were generated in CHO cells stably expressing NFAT BLA (Beta-lactamase). A human GPR40 stable cell-line was generated in HEK cells stably expressing the aequorin expressing reporter. The expression plasmids were transfected using lipofectamine (Life Technologies) following manufacturer's instructions. Stable cell-lines were generated following drug selection.
The assay was performed in 96-well format. HEK cells stably expressing human GPR40 were plated to be 60-80% confluent within 72 h. After 72 h, the plates were aspirated and the cells washed with inositol-free DMEM (ICN). The wash media was replaced with 150 μL of 3H-inositol labeling media (inositol-free media containing 0.4% human albumin or 0.4% mouse albumin, 1× pen/strep antibiotics, glutamine, 25 mM HEPES to which was added 3H-myo-inositol NEN #NET114A 1 mCi/mL, 25 Ci/mmol diluted 1:150 in loading media with a final specific radioactivity of 1 μCi/150 μL). Alternatively, the human and mouse albumin can be added after the overnight labeling step before the addition of LiCl.
The assay was typically run the next day after 18 h labeling. On the day of the assay, 5 μL of 300 mM LiCl was added to all wells and incubated at 37 degrees for 20 min. 0.75 μL of 200× compounds were added and incubated with the cells for 60 min at 37 degrees. The media was then aspirated off and the assay terminated with the addition of 60 μL 10 mM formic acid. The cells were lysed for 60 min at room temperature. 15-30 μL of lysate was mixed with 70 μL/1 mg YSi SPA beads (Amersham) in clear bottom Isoplates. The plates were shaken for 2 h at room temperature. Beads were allowed to settle and the plates were counted in the Wallac Microbeta.

Assay [2] deals with T1, Human GPR40. The assay is described as follows: FLIPR assay (agonist-induced calcium mobilization, GPR40/CHO NFAT BLA cells). It counts as cell-based. On the set-up: expressed in transfected cells. As to the method: as §1
FLIPR (Fluorimetric Imaging Plate Reader, Molecular Devices) assays were performed to measure agonist-induced calcium mobilization of the stable clones. For the FLIPR assay, one day before assay, GPR40/CHO NFAT BLA cells were seeded into black-wall-clear-bottom 384-well plates (Costar) at 1.4×10e4 cells/20 μL medium/well. The cells were incubated with 20 μl/well of the assay buffer (HBSS, 0.1% BSA, 20 mM HEPES, 2.5 mM probenecid, pH 7.4) containing 8 μM fluo-4, AM, 0.08% pluronic acid at room temperature for 100 minutes. Fluorescence output was measured using FLIPR. Compounds were dissolved in DMSO and diluted to desired concentrations with assay buffer. 13.3 μL/well of compound solution was added.
For orientation: Calcium assays in cells follow changes in intracellular calcium, usually with a dye or a luminescent sensor.

T1 sequence (O14842 whole entry): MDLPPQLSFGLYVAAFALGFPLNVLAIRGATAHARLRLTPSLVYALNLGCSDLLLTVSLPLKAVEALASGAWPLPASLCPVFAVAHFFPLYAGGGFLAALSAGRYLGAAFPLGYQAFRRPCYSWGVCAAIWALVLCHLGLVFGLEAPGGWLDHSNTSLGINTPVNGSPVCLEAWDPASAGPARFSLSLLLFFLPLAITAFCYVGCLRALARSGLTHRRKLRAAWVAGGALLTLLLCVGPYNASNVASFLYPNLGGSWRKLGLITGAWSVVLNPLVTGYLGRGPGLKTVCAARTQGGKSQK

For orientation: EC50 means the concentration that produces a half-maximal response. Turning to `CS(=O)(=O)N1CC2(CN(c3ccc(-c4cc(COc5cc6c(cn5)[C@H]5[C@@H](C6)[C@@H]5C(=O)O)c(F)cc4C(F)(F)F)c(F)c3)C2)C1` [Compound-4, (5aR,6S,6aS)-3-((2′,4-difluoro-4′-(6-(methylsulfonyl)-2,6-diazaspiro[3,3]heptan-2-yl)-6-(trifluoromethyl)-[1,1′-biphenyl]-3-yl)methoxy)-5,5a,6,6a-tetrahydrocyclopropa[4,5]-cyclopenta[1,2-c]pyridine-6-carboxylic acid], the EC50 in assay [1] stood at 19 nM; in assay [2], 10 nM.

Consider `CS(=O)(=O)N1CCC(c2ccc(-c3cc(COc4cc5c(cn4)[C@H]4[C@@H](C5)[C@@H]4C(=O)O)c(F)cc3C(F)(F)F)cc2)CC1` [Compound-5, (5aR,6S,6aS)-3-((4-fluoro-4′-(1-(methylsulfonyl)piperidin-4-yl)-6-(trifluoromethyl)-[1,1′-biphenyl]-3-yl)methoxy)-5,5a,6,6a-tetrahydrocyclopropa[4,5]cyclopenta[1,2-c]pyridine-6-carboxylic acid], for which the figures for the EC50 in assay [1] and in assay [2] were 13 nM and 4.2 nM, respectively.

For the compound `O=C(O)[C@H]1[C@@H]2Cc3cc(OCc4cc(-c5ccc(C6CCN(S(=O)(=O)C7CC7)CC6)cc5)c(C(F)(F)F)cc4F)ncc3[C@@H]21` [Compound-6, (5aR,6S,6aS)-3-((4′-(1-(cyclopropylsulfonyl)piperidin-4-yl)-4-fluoro-6-(trifluoromethyl)-[1,1′-biphenyl]-3-yl)methoxy)-5,5a,6,6a-tetrahydrocyclopropa[4,5]cyclopenta[1,2-c]pyridine-6-carboxylic acid], the EC50 was 47 nM in assay [1] and 4.2 nM in assay [2].

Consider `Cn1nnc(-c2ccc(-c3cc(COc4cc5c(cn4)[C@H]4[C@@H](C5)[C@@H]4C(=O)O)c(F)cc3C(F)(F)F)c(F)c2)n1` [Compound-7, (5aR,6S,6aS)-3-((2′,4-difluoro-4′-(2-methyl-2H-tetrazol-5-yl)-6-(trifluoromethyl)-[1,1′-biphenyl]-3-yl)methoxy)-5,5a,6,6a-tetrahydrocyclopropa[4,5]cyclopenta[1,2-c]pyridine-6-carboxylic acid], for which the values for the concentration for a half-maximal effect (EC50) in assay [1] and in assay [2] were 3.4 nM and 6.7 nM, respectively.

Turning to `O=C(O)[C@H]1[C@@H]2Cc3cc(OCc4cc(-c5ccc(-c6ccc(Cl)cc6F)cc5F)c(C(F)(F)F)cc4F)ncc3[C@@H]21` [Compound-8, (5aR,6S,6aS)-3-((4″-chloro-2′,2″,4-trifluoro-6-(trifluoromethyl)-[1,1′:4′,1″-terphenyl]-3-yl)methoxy)-5,5a,6,6a-tetrahydrocyclopropa[4,5]cyclopenta[1,2-c]pyridine-6-carboxylic acid], the half-maximal effective concentration (EC50) is 63 nM in assay [1] and 12 nM in assay [2].

Take `CC1(O)CCN(c2ccc(-c3cc(COc4cc5c(cn4)[C@H]4[C@@H](C5)[C@@H]4C(=O)O)c(F)cc3C(F)(F)F)c(F)c2)CC1` [Compound-11, (5aR,6S,6aS)-3-((2′,4-difluoro-4′-(4-hydroxy-4-methylpiperidin-1-yl)-6-(trifluoromethyl)-[1,1′-biphenyl]-3-yl)methoxy)-5,5a,6,6a-tetrahydrocyclopropa[4,5]cyclopenta[1,2-c]pyridine-6-carboxylic acid]: the EC50 in assay [1] was 6.8 nM; in assay [2], 5.6 nM.

With `CC(C)(O)C1CCN(c2ccc(-c3cc(COc4cc5c(cn4)[C@H]4[C@@H](C5)[C@@H]4C(=O)O)c(F)cc3C(F)(F)F)c(F)c2)CC1` [Compound-12, (5aR,6S,6aS)-3-((2′,4-difluoro-4′-(4-(2-hydroxypropan-2-yl)piperidin-1-yl)-6-(trifluoromethyl)-[1,1′-biphenyl]-3-yl)methoxy)-5,5a,6,6a-tetrahydrocyclopropa[4,5]cyclopenta[1,2-c]-pyridine-6-carboxylic acid], the EC50 in assay [1] was 20 nM; in assay [2] it was 6.1 nM.

Regarding `CC(C)(O)Cn1cc2c(n1)CN(c1ccc(-c3cc(COc4cc5c(cn4)[C@H]4[C@@H](C5)[C@@H]4C(=O)O)c(F)cc3C(F)(F)F)c(F)c1)C2` [Compound-13, (5aR,6S,6aS)-3-((2′,4-difluoro-4′-(2-(2-hydroxy-2-methylpropyl)pyrrolo[3,4-c]pyrazol-5(2H,4H,6H)-yl)-6-(trifluoromethyl)-[1,1′-biphenyl]-3-yl)methoxy)-5,5a,6,6a-tetrahydrocyclo-propa[4,5]cyclopenta[1,2-c]pyridine-6-carboxylic acid], the EC50 in assay [1] was found to be 15 nM; in assay [2], 6.7 nM.

The record behind these values is patent US10519115B2, “Antidiabetic tricyclic compounds” (Merck Sharp & Dohme Corp., priority 2013, dated 2019).
